Assay results as given in article PMC3498823 (Bioorganic & medicinal chemistry letters, 2011).
Entries after “also recorded” stand apart in the source; their conditions may differ.

What was measured:
[1] = test system: amphetamine induced hyperlocomotion in rats; assay: reversal of amphetamine-induced hyperlocomotion; format: in vivo; details: 30 mg/kg i.p.
[2] = test system: mGlu5 receptor; assay: triple-add functional calcium mobilization assay, mGlu5; format: cell-based; details: PAM, Ago-PAM, weak PAM or partial antagonist
[3] = test system: mGlu5 receptor; details: HTS lead; cited from earlier work
[4] = molecular target: mGlu5 receptor (Rattus norvegicus, UniProt P31424); assay: triple-add functional calcium mobilization assay, mGlu5; format: cell-based; details: PAM, Ago-PAM, weak PAM or partial antagonist
[5] = test system: in vivo preclinical antipsychotic model; details: orally active; cited from earlier work

Chain of mGlu5 receptor (Rattus norvegicus, UniProt P31424) (P31424 21-1203): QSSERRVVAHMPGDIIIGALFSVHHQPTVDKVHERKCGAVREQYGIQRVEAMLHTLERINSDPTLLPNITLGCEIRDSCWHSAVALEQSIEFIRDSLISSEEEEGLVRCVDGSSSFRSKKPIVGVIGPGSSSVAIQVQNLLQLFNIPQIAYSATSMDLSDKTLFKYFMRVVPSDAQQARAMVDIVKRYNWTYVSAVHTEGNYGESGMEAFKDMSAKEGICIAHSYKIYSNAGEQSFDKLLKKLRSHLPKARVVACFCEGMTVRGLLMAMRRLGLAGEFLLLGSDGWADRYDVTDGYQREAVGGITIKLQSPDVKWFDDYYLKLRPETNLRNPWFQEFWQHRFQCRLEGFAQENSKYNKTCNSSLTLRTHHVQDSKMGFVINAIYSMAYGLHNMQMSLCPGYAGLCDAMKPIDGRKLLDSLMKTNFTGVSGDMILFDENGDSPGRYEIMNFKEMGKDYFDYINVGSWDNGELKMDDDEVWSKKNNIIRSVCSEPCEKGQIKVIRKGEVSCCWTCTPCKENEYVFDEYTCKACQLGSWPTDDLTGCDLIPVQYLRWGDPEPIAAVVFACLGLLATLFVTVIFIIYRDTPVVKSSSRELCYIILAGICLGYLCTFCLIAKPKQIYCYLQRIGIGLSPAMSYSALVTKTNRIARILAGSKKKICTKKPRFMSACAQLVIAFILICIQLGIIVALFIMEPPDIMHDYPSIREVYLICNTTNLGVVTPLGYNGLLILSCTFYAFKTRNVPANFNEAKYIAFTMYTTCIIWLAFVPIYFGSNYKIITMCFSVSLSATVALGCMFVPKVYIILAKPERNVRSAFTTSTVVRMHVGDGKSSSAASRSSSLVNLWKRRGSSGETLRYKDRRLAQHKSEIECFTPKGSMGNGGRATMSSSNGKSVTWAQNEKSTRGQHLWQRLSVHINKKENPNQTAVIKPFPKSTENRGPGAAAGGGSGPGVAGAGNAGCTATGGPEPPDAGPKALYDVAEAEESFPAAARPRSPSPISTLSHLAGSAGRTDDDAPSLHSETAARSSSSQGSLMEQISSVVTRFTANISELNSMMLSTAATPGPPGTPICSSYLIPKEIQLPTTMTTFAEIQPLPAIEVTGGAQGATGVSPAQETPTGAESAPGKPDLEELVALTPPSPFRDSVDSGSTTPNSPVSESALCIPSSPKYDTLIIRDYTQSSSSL
Chain of mGlu5 receptor (P31424 21-1203): as above

Compound: CCCN1CCc2cc(C#Cc3ccccc3)ccc2C1=O [9c]
- reversal of amphetamine-induced hyperlocomotion [1]: significant reversal; also recorded: Reversal of amphetamine-induced hyperlocomotion

Compound: O=C1NCCc2cc(C#Cc3ccccc3)ccc21 [9a]
- reversal of amphetamine-induced hyperlocomotion [1]: significant reversal

Compound: CCCCN1CCc2nc(C#Cc3cccc(F)c3)ccc2C1=O [10d]
- Category (mode of pharmacology) [2]: Weak PAM

Compound: CC(C)CN1CCc2nc(C#Cc3cccc(F)c3)ccc2C1=O [10c]
- Category (mode of pharmacology) [2]: Weak PAM

Compound: O=C(c1ccc(C#Cc2ccccc2)cc1)N1CCC(O)CC1 [VU0092273]
- ligand efficiency (LE) [3]: ~0.5

Compound: O=C1c2ccc(C#Cc3cccc(F)c3)nc2CCN1CC1CC1 [10e]
- Category (mode of pharmacology) [4]: partial antagonists; also recorded: Partial Antag

Compound: O=C1c2ccc(C#Cc3ccccc3)cc2CCN1CC1CC1 [9f]
- reversal of amphetamine-induced hyperlocomotion [1]: significant reversal

Compound: O=C(NC1CCC1)c1ccc(C#Cc2cccc(F)c2)nc1 [VU0360172]
- efficacy in an in vivo preclinical antipsychotic model [5]: efficacious

Compound: CN1CCc2nc(C#Cc3cccc(F)c3)ccc2C1=O [10b]
- Category (mode of pharmacology) [4]: partial antagonists; also recorded: Partial Antag
